From US5219859A, “Indole derivatives, preparation processes and medicinal products containing them” (Lipha, Lyonnaise Industrielle Pharmaceutique, priority 1991, dated 1993)

How the values were obtained:
[1] = tested on: intestinal absorption of cholesterol; test: Test C: measurement of the inhibition of intestinal absorption in rats; assay type: in vivo, male Wistar rats; settings: Rattus norvegicus, po, fasted 24 hours, orally, with Triton WR-1339 I.V., [^3 H]cholesterol orally one hour later, blood three hours later, read-out: 50% effective dose (ED50), quantity of compound which inhibits the intestinal absorption of cholesterol by 50%
Protocol: Test C: measurement of the inhibition of intestinal absorption in rats; male Wistar rats weighing 230-250 g, fasted for 24 hours, are treated simultaneously with the test product administered orally and with Triton WR-1339 administered I.V.; one hour later, they are again treated orally with [^3 H]cholesterol; three hours later, under ether anaesthesia, 1 ml of blood is withdrawn from the animals' retro-orbital sinus: the blood radioactivity, evaluated on 0.1 ml of serum, represents a measure of the absorption of the [^3 H]cholesterol administered. The results are expressed in the form of a 50% effective dose (ED50) in mg per kg of body weight, representing the quantity of compound which inhibits the intestinal absorption of cholesterol by 50%.

[2] = target: T1, aortic ACAT (acylcoenzyme A:cholesterol acyltransferase) (Oryctolagus cuniculus, UniProt A0A5F9CPP4); test: Test A: measurement of the inhibition of aortic ACAT in vitro in rabbits; assay type: biochemical, male New Zealand rabbits; settings: microsomal fraction of aorta of rabbits on a diet enriched with 1.25% of cholesterol; [^14 C]oleylcoenzyme A; read-out: 50% inhibitory concentration (IC50), concentration of compound which inhibits the ACAT activity by 50%
T1 construct: the aorta is removed, dissected and homogenised in order to prepare the microsomal fraction of it by ultracentrifugation; from tissue; host or cells: aorta microsomes of cholesterol-fed male New Zealand rabbits
T1 sequence (A0A5F9CPP4 1-555): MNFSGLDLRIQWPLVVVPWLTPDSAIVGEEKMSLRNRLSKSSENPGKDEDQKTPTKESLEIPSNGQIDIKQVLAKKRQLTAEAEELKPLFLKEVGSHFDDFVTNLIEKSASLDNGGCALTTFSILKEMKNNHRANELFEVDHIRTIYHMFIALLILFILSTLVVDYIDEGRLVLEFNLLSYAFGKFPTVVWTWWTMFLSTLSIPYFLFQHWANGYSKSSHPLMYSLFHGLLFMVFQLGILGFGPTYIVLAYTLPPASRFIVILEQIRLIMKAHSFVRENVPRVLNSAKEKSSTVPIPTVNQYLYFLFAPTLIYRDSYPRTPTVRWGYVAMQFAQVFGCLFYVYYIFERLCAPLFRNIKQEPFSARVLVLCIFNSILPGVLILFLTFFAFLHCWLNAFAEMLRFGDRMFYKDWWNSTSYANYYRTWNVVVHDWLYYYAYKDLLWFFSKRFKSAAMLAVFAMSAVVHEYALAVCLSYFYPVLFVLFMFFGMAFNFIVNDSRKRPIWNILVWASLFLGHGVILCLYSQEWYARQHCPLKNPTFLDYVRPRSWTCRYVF
Protocol: Test A: measurement of the inhibition of aortic ACAT in virro in rabbits: male New Zealand rabbits weighing between 2.2 and 2.5 kg, subjected beforehand for 15 days to a diet enriched with 1.25% of cholesterol, are sacrificed by cervical dislocation; the aorta is removed, dissected and homogenised in order to prepare the microsomal fraction of it by ultracentrifugation; these microsomes are incubated in the presence of [^14 C]oleylcoenzyme A in accordance with the method described by P. J. GILLIES et al., Exp. and Mol. Pathol., 1986, 44, 329-339; the lipids are extracted from the incubate with a methanol/chloroform mixture and the [^14 C]oleylcholesterol is separated by TLC: the latter compound represents a measure of the ACAT activity, and the results were expressed in the form of a 50% inhibitory concentration (IC50), representing the concentration of compound which inhibits the ACAT activity by 50%.

[3] = tested on: blood cholesterol level; test: Test B: measurement of the hypocholesterolaemic effect in rodents; assay type: in vivo, male Wistar rats; settings: Rattus norvegicus, po; rats, diet enriched with 2.5% of cholesterol for 8 days; orally, 24 hours and 4 hours before sacrifice; read-out: 25% effective dose (ED25), quantity of compound which lowers the blood cholesterol level by 25%
Protocol: Test B: measurement of the hypocholesterolaemic effect in rodents: male Wistar rats weighing 200-220 g are subjected to a diet enriched with 2.5% of cholesterol for 8 days; on the last two days, they are treated orally with the test product 24 hours and 4 hours before being sacrificed by exsanguination: the blood cholesterol level is evaluated on an aliquot fraction of serum by an automated enzymatic method. The results are expressed in the form of a 25% effective dose (ED25) in mg per kg of body weight, representing the quantity of compound which lowers the blood cholesterol level by 25%.

[4] = tested on: blood sugar level; test: Test D: measurement of the hypoglycaemic effect; assay type: in vivo, male Swiss mice; settings: mice, orally, dose of 60 mg.kg, one hour
Protocol: Test D: measurement of the hypoglycaemic effect: male Swiss mice weighing 26-28 g are treated orally with the test product. One hour later, the animals are sacrificed by exsanguination, and the blood sugar level is measured on an aliquot fraction of plasma by an enzymatic method employing glucose oxidase.

IC50 [2]: 0.046 µM
SMILES: CC(C)c1cccc(C(C)C)c1NC(=O)NCC1(c2cn(C)c3ccccc23)CCCC1 [compound No. 1, N^1-(2,6-Diisopropylphenyl)-N^2-[1-(1-methyl-3-indolyl)-cyclopentylmethyl]urea]
ED50 [1]: 0.176 mg/kg
ED25 [3]: 0.098 mg/kg
significant lowering of the blood sugar level [4]: 21%
